Patent publication US7135462B2, “Hepatitis C virus inhibitors” (priority 2003, dated 2006)
Where two headings read alike, the source gives them in different places.

Columns and labels:
[1] = target: T1, HCV NS3/4A protease complex (BMS strain) (UniProt P27958, C1454S/C1711G, species not given); test: Recombinant HCV NS3/4A protease complex FRET peptide assay; format: biochemical, Hepatitis C virus (HCV), genotype 1a; conditions: NS3/4A BMS strain, activity range class
T1 construct: for H77 and J4L6S; fused on or other part: Three-lysine solubilising tail at the C-terminus of NS4A
Excerpt: Recombinant HCV NS3/4A Protease Complex FRET Peptide Assay
Serum from an HCV-infected patient was obtained from Dr. T. Wright, San Francisco Hospital. An engineered full-length cDNA (compliment deoxyribonucleic acid) template of the HCV genome (BMS strain) was constructed from DNA fragments obtained by reverse transcription-PCR (RT-PCR) of serum RNA (ribonucleic acid) and using primers selected on the basis of homology between other genotype 1a strains.
The H77 and J4L6S strains were used for production of recombinant NS3/4A protease complexes. […] Briefly, a three-lysine solubilizing tail was added at the 3′-end of the NS4A coding region. […] Briefly, the NS3/4A protease complex expression was induced with 0.5 millimolar (mM) Isopropyl β-D-1-thiogalactopyranoside (IPTG) for 22 hours (h) at 20° C. […] The cells were resuspended in lysis buffer (10 mL/g) consisting of 25 mM N-(2-Hydroxyethyl)piperazine-N′-(2-Ethane Sulfonic acid) (HEPES), pH 7.5, 20% glycerol, 500 mM Sodium Chloride (NaCl), 0.5% Triton X-100, 1 microgram/milliliter (“μg/mL”) lysozyme, 5 mM Magnesium Chloride (MgCl2), 1 μg/ml DnaseI, 5 mM β-Mercaptoethanol (βME), Protease inhibitor—Ethylenediamine Tetraacetic acid (EDTA) free (Roche), homogenized and incubated for 20 minutes (min) at 4° C. The homogenate was sonicated and clarified by ultra-centrifugation at 235000 g for 1 h at 4° C. Imidazole was added to the supernatant to a final concentration of 15 mM and the pH adjusted to 8.0. The crude protein extract was loaded on a Nickel—Nitrilotriacetic acid (Ni-NTA) column pre-equilibrated with buffer B (25 mM HEPES, pH 8.0, 20% glycerol, 500 mM NaCl, 0.5% Triton X-100, 15 mM imidazole, 5 mM βME). The sample was loaded at a flow rate of 1 mL/min. The column was washed with 15 column volumes of buffer C (same as buffer B except with 0.2% Triton X-100). The protein was eluted with 5 column volumes of buffer D (same as buffer C except with 200 mM Imidazole).
NS3/4A protease complex-containing fractions were pooled and loaded on a desalting column Superdex-S200 pre-equilibrated with buffer D (25 mM HEPES, pH 7.5, 20% glycerol, 300 mM NaCl, 0.2% Triton X-100, 10 mM βME). Sample was loaded at a flow rate of 1 mL/min. NS3/4A protease complex-containing fractions were pooled and concentrated to approximately 0.5 mg/ml.
The enzyme was stored at −80° C., thawed on ice and diluted prior to use in assay buffer. […] The sequence of this peptide is loosely based on the NS4A/NS4B natural cleavage site for the HCV NS3 protease except there is an ester linkage rather than an amide bond at the cleavage site. The peptide substrate was incubated with one of the three recombinant NS3/4A protease complexes, in the absence or presence of a compound of the present invention, and the formation of fluorescent reaction product was followed in real time using a Cytofluor Series 4000.
The reagents were as follow: HEPES and Glycerol (Ultrapure) were obtained from GIBCO-BRL. Dimethyl Sulfoxide (DMSO) was obtained from Sigma. β-Mercaptoethanol was obtained from Bio Rad.
Assay buffer: 50 mM HEPES, pH 7.5; 0.15 M NaCl; 0.1% Triton; 15% Glycerol; 10 mM βME. Substrate: 2 μM final concentration (from a 2 mM stock solution in DMSO stored at −20° C.). HCV NS3/4A protease type 1a (1b), 2–3 nM final concentration (from a 5 μM stock solution in 25 mM HEPES, pH 7.5, 20% glycerol, 300 mM NaCl, 0.2% Triton-X100, 10 mM βME).
The assay was performed in a 96-well polystyrene black plate from Falcon.

[2] = system: HCV replicon in Huh7 cells; test: microbe, parasite or virus in culture; format: cell-based, strain 1b; conditions: Hepatitis C virus, Huh-7, 96 h; Huh7 cells expressing HCV replicon, 4 days; activity range class
Excerpt: Generation of HCV Replicon
This system enabled us to evaluate the effects of our HCV Protease compounds on HCV RNA replication. Briefly, using the HCV strain 1b sequence described in the Lohmann paper (Assession number: AJ238799), an HCV cDNA was generated encoding the 5′ internal ribosome entry site (IRES), the neomycin resistance gene, the EMCV (encephalomyocarditis viurs)-IRES and the HCV nonstructural proteins, NS3-NS5B, and 3′ non-translated region (NTR). In vitro transcripts of the cDNA were transfected into the human hepatoma cell line, Huh7. […] Resulting cell lines were characterized for positive and negative strand RNA production and protein production over time.
Huh7 cells, constitutively expressing the HCV replicon, were grown in Dulbecco's Modified Eagle Media (DMEM) containing 10% Fetal calf serum (FCS) and 1 mg/ml G418 (Gibco-BRL). Cells were seeded the night before (1.5×10^4 cells/well) in 96-well tissue-culture sterile plates. Compound and no compound controls were prepared in DMEM containing 4% FCS, 1:100 Penicillin/Streptomysin, 1:100 L-glutamine and 5% DMSO in the dilution plate (0.5% DMSO final concentration in the assay). Compound/DMSO mixes were added to the cells and incubated for 4 days at 37° C. After 4 days, plates were rinsed thoroughly with Phosphate-Buffered Saline (PBS) (3 times 150 μl). The cells were lysed with 25 μl of a lysis assay reagent containing the FRET peptide (RET S1, as described for the in vitro enzyme assay). The lysis assay reagent was made from 5× cell Luciferase cell culture lysis reagent (Promega #E153A) diluted to 1× with distilled water, NaCl added to 150 mM final, the FRET peptide diluted to 10 μM final from a 2 mM stock in 100% DMSO. The plate was then placed into the Cytofluor 4000 instrument which had been set to 340 nm excitation/490 nm emission, automatic mode for 21 cycles and the plate read in a kinetic mode. EC50 determinations were carried out as described for the IC50 determinations. […]
The percentage inhibition was calculated using the formula below: […]
The values were graphed and analyzed using XLFit to obtain the EC50 value.

SMILES | IC50 ([1]; read-out: IC50) | EC50 [2] | IC50 [1]
C=C[C@@H]1C[C@]1(NC(=O)[C@@H]1C[C@@H](Oc2nccc3cc(OC)ccc23)CN1C(=O)[C@@H](NC(=O)OC(C)(C)C)C(C)(C)C)C(=O)NS(=O)(=O)C1(CCC)CC1 [Cmpd 302, (1-{4-(6-Methoxy-isoquinolin-1-yloxy)-2-[1-(1-propyl-cyclopropanesulfonylaminocarbonyl)-2-vinyl-cyclopropylcarbamoyl]-pyrrolidine-1-carbonyl}-2,2-dimethyl-propyl)-carbamic acid tert-butyl ester] | < 100 nM | < 100 nM | 
C=C[C@@H]1C[C@]1(NC(=O)[C@@H]1C[C@@H](Oc2nccc3cc(OC)ccc23)CN1C(=O)[C@@H](NC(=O)OC(C)(C)C)C(C)(C)C)C(=O)NS(=O)(=O)C1(Cc2ccccc2)CC1 [Cmpd 303, {1-[2-[1-(1-Benzyl-cyclopropanesulfonylaminocarbonyl)-2-vinyl-cyclopropylcarbamoyl]-4-(6-methoxy-isoquinolin-1-yloxy)-pyrrolidine-1-carbonyl]-2,2-dimethyl-propyl}-carbamic acid tert-butyl ester] | 100 to 1000 nM | 100 to 1000 nM | 
C=C[C@@H]1C[C@]1(NC(=O)[C@@H]1C[C@@H](Oc2nccc3cc(OC)ccc23)CN1C(=O)[C@@H](NC(=O)OC(C)(C)C)C(C)(C)C)C(=O)NS(=O)(=O)C1(Cl)CC1 [Cmpd 304, {1-[2-[1-(1-Chloro-cyclopropanesulfonylaminocarbonyl)-2-vinyl-cyclopropylcarbamoyl]-4-(6-methoxy-isoquinolin-1-yloxy)-pyrrolidine-1-carbonyl]-2,2-dimethyl-propyl}-carbamic acid tert-butyl ester] | < 100 nM | < 100 nM | 
C=C[C@@H]1C[C@]1(NC(=O)[C@@H]1C[C@@H](Oc2nccc3ccccc23)CN1C(=O)[C@@H](NC(=O)OC(C)(C)C)C(C)(C)C)C(=O)NS(=O)(=O)C1(CC2CC2)CC1 [Cmpd 400] |  | 100 to 1000 nM | < 100 nM
C=C[C@@H]1C[C@]1(NC(=O)[C@@H]1C[C@@H](Oc2nccc3ccccc23)CN1C(=O)[C@@H](NC(=O)OC(C)(C)C)C(C)(C)C)C(=O)NS(=O)(=O)C1(Cc2ccccc2)CC1 [Cmpd 401] |  | 100 to 1000 nM | 100 to 1000 nM
C=C[C@@H]1C[C@]1(NC(=O)[C@@H]1C[C@@H](Oc2cc(-c3ccccc3)nc3c(C)noc23)CN1C(=O)[C@@H](NC(=O)OC(C)(C)C)C(C)(C)C)C(=O)NS(=O)(=O)C1(Cc2ccccc2)CC1 [Cmpd 500] | < 100 nM | 100 to 1000 nM | 
C=C[C@@H]1C[C@]1(NC(=O)[C@@H]1C[C@@H](Oc2cc(-c3ccccc3)nc3c(C)noc23)CN1C(=O)[C@@H](NC(=O)OC(C)(C)C)C(C)(C)C)C(=O)NS(=O)(=O)C1(CCC)CC1 [Cmpd 501] |  | 100 to 1000 nM | < 100 nM
CCCC1(S(=O)(=O)NC(=O)[C@@]2(NC(=O)[C@@H]3C[C@@H](Oc4cc(-c5ccccc5)nc5c(C)noc45)CN3C(=O)[C@@H](NC(=O)OC(C)(C)C)C(C)(C)C)C[C@H]2CC)CC1 [Cmpd 502] |  | 100 to 1000 nM | 100 to 1000 nM
C=C[C@@H]1C[C@]1(NC(=O)C1C[C@@H](Oc2nc(-c3ccccc3)nc3ccccc23)CN1C(=O)[C@@H](NC(=O)OC(C)(C)C)C(C)(C)C)C(=O)NS(=O)(=O)C1(CC2CC2)CC1 (some centres unmarked) [Cmpd 600] | < 100 nM | < 100 nM | 
C=C[C@@H]1C[C@]1(NC(=O)[C@@H]1C[C@@H](Oc2nc(-c3ccccc3)nc3ccccc23)CN1C(=O)[C@@H](NC(=O)OC(C)(C)C)C(C)(C)C)C(=O)NS(=O)(=O)C1(Cc2ccccc2)CC1 [Cmpd 601] | < 100 nM | 100 to 1000 nM | 
C=C[C@@H]1C[C@]1(NC(=O)[C@@H]1C[C@@H](Oc2nc(-c3ccccc3)nc3ccccc23)CN1C(=O)[C@@H](N)C(C)(C)C)C(=O)NS(=O)(=O)C1(CC2CC2)CC1 [Cmpd 602] | 100 to 1000 nM | 1000 to 10000 nM | 
C=C[C@@H]1C[C@]1(NC(=O)[C@@H]1C[C@@H](Oc2nc(-c3ccccc3)nc3ccccc23)CN1C(=O)[C@@H](NC(C)=O)C(C)(C)C)C(=O)NS(=O)(=O)C1(CC2CC2)CC1 [Cmpd 604] | < 100 nM | 100 to 1000 nM | 
C=C[C@@H]1C[C@]1(NC(=O)[C@@H]1C[C@@H](Oc2nc(-c3ccccc3)nc3ccccc23)CN1C(=O)[C@@H](NC(=O)c1cnccn1)C(C)(C)C)C(=O)NS(=O)(=O)C1(CC2CC2)CC1 [Cmpd 605] | 100 to 1000 nM | 1000 to 10000 nM | 
C=C[C@@H]1C[C@]1(NC(=O)[C@@H]1CC(Oc2ccnc(-c3cccs3)c2)CN1C(=O)[C@@H](NC(=O)OC1CCCC1)C(C)(C)C)C(=O)NS(=O)(=O)C1(CC2CC2)CC1 (some centres unmarked) [Cmpd 700] | < 100 nM | < 100 nM | 
C=C[C@@H]1C[C@]1(NC(=O)[C@@H]1CC(Oc2ccnc(-c3cccs3)c2)CN1C(=O)[C@@H](NC(=O)OC1CCCC1)C(C)(C)C)C(=O)NS(=O)(=O)C1(Cc2ccccc2)CC1 (some centres unmarked) [Cmpd 701] | < 100 nM | 100 to 1000 nM | 
C=C[C@@H]1C[C@]1(NC(=O)[C@@H]1C[C@@H](Oc2nccc3c(OC)cccc23)CN1C(=O)[C@@H](NC(=O)OC(C)(C)C)C(C)(C)C)C(=O)NS(=O)(=O)C1(CC)CC1 [Cpd 100] |  | < 100 nM | < 100 nM
C=C[C@@H]1C[C@]1(NC(=O)[C@@H]1C[C@@H](Oc2nccc3c(Cl)cccc23)CN1C(=O)[C@@H](NC(=O)OC(C)(C)C)C(C)(C)C)C(=O)NS(=O)(=O)C1(CC)CC1 [Cpd 101] | < 100 nM | < 100 nM | 
C=C[C@@H]1C[C@]1(NC(=O)[C@@H]1C[C@@H](Oc2ncc(Cl)c3ccccc23)CN1C(=O)[C@@H](NC(=O)OC(C)(C)C)C(C)(C)C)C(=O)NS(=O)(=O)C1(CC)CC1 [Cpd 102] |  | 100 to 1000 nM | < 100 nM
C=C[C@@H]1C[C@]1(NC(=O)[C@@H]1C[C@@H](Oc2nccc3c(OC(F)(F)F)cccc23)CN1C(=O)[C@@H](NC(=O)OC(C)(C)C)C(C)(C)C)C(=O)NS(=O)(=O)C1(CC)CC1 [Cpd 103] | < 100 nM | 100 to 1000 nM | 
